Assay results published in patent US20110295187A1 (Erchonia Corporation, priority 2004, published 2011).

Test system: pads of fat near the waist ("love handles")
Settings: patient; niacin 500 mg rising to 1500 mg/day orally by tablet over 14 days; 635 nm diode laser, max 10 mW, 30 min scanning sessions

O=C(O)c1cccnc1 [niacin, nicotinic acid]
Fat reduction: love handles after treatment: reduced
